According to patent US8207330B2, “Two-photon absorption material and application thereof” (Ricoh Company, Ltd., priority 2008, dated 2012):

How the values were obtained:
[1] = Two-photon absorption cross-sectional area, Z scan method, Examples C; format: physicochemical; details: tetrahydrofuran solution, wavelength 800 nm
Experimental: Compound 1-7 (porphyrin derivative) of the present invention was dissolved in tetrahydrofuran, and the resultant tetrahydrofuran solution was measured for its two-photon absorption cross-sectional area according to the below-described evaluation method therefor.
The following Comparative Compound 1 was dissolved in tetrahydrofuran, and the resultant tetrahydrofuran solution was measured for its two-photon absorption cross-sectional area according to the below-described evaluation method therefor.
The following Comparative Compound 2, having a typical porphyrin structure, was dissolved in tetrahydrofuran, and the resultant tetrahydrofuran solution was measured for its two-photon absorption cross-sectional area in a similar manner.
The following Comparative Compound 3, having a conventional, typical diazaporphyrin structure, was dissolved in tetrahydrofuran, and the resultant tetrahydrofuran solution was measured for its two-photon absorption cross-sectional area.
[drawing 71] [Method for Measuring Two-Photon Absorption Cross-Sectional Area] […]
A quartz cell filled with each sample solution was placed in a light path through which a focused laser beam was passed. […] The sample solution was measured for its transmittance, and the thus-obtained value and the following theoretical equation (I) were used to determine a nonlinear absorption coefficient of the sample. […]

[2] = Two-photon absorption cross-sectional area, Z scan method, Examples A (800 nm); format: physicochemical; details: tetrahydrofuran solution, femtosecond titanium sapphire laser
Experimental: Each of the above-given compounds Nos. 1, 2, 4, 5, 6, 7, 10, 11, 15, 16, 17, 20, 24, 25, 27 and 28 of the present invention was dissolved in tetrahydrofuran, and the resultant solution was measured for its two-photon absorption cross-sectional area according to the below-described evaluation method therefor.
The following compound (29) was dissolved in tetrahydrofuran, and the resultant solution was measured for its two-photon absorption cross-sectional area according to the below-described evaluation method therefor.
The following compound (30) was dissolved in tetrahydrofuran, and the resultant solution was measured for its two-photon absorption cross-sectional area according to the below-described evaluation method therefor.
[drawing 66] [Method for Measuring Two-Photon Absorption Cross-Sectional Area]
FIG. 8 schematically illustrates a system of the method.
Measuring light source: femtosecond titanium sapphire laser
Repetition frequency: 80 MHz
Measuring method: Z scan method
Wavelength of light source: 800 nm
Inner diameter of cuvette: 10 mm
Light power for measurement: about 500 mW
Collection diameter: 40 μm to 50 μm
A quartz cell filled with each sample solution was placed in a light path through which a focused laser beam was passed. Then, the cell was moved along the light path for Z-scan measurement.
The sample solution was measured for its transmittance, and the thus-obtained value and the following theoretical equation (1) were used to determine a nonlinear absorption coefficient of the sample. T=[ln(1+I0L0β)]/I0L0β (1) where T denotes a transmittance (%), I0 denotes an excited light density [GW/cm^2], L0 denotes a sample cell length [cm], and β denotes a nonlinear absorption coefficient [cm/GW].
The thus-determined nonlinear absorption coefficient and the following equation (2) were used to calculate a two-photon absorption cross-sectional area σ. Note that the unit of σ is GM (1 GM=1×10^−50 cm^4·s·photon^−1). σ=1,000×hvβ/[…] (2)
where h denotes the Planck's constant [J·s], v denotes a frequency of an incident laser beam [s^−1], NA denotes the Avogadoro's number, and C denotes a concentration of a solution [mol/L].

SMILES	Two-photon absorption cross-sectional area [1] [GM]	Two-photon absorption cross-sectional area [2] [GM]
COc1ccc(-c2cc(C3=C(c4cc(-c5ccc(OC)cc5)sc4OC)C(F)(F)C(F)(F)C3(F)F)c(OC)s2)cc1 [Comp. Ex. C-1]	15	–
CCC1=C(CC)C2=C(Br)c3c(CC)c(CC)c4[n]3[Zn][n]3c(c(CC)c(CC)c3=C(c3ccc5c(c3)C(C)(C)c3cc(C6=C7N=C(C(CC)=C7CC)C(c7ccc([N+](=O)[O-])cc7)=c7c(CC)c(CC)c8[n]7[Zn][n]7c(c(CC)c(CC)c76)C(c6ccc([N+](=O)[O-])cc6)=C6N=C(C(CC)=C6CC)C=8Br)ccc3-5)C3=NC(=C4c4ccc([N+](=O)[O-])cc4)C(CC)=C3CC)=C(c3ccc([N+](=O)[O-])cc3)C1=N2 [compound 28]	–	590
COc1ccc(-c2cc(C3=C(c4cc(-c5ccc(OC)cc5)sc4OC)C(F)(F)C(F)(F)C3(F)F)c(OC)s2)cc1 [compound 30, reference compound]	–	15
